This is an account of results in PMC7470127, “Design, synthesis, and evaluation of 1, 4-benzodioxan-substituted chalcones as selective and reversible inhibitors of human monoamine oxidase B” (Journal of Enzyme Inhibition and Medicinal Chemistry, 2020).

As usually defined, the melting point is the temperature of the solid-liquid transition. Usually IC50 stands for the concentration at which inhibition is half-maximal. Broadly, the inhibition is the change of the read-out against control, counted positive when it falls.

Each structure is given as a SMILES string.

In one data set the target is T1, hMAO-B (Homo sapiens, UniProt P27338).
T1 sequence (P27338 1-520): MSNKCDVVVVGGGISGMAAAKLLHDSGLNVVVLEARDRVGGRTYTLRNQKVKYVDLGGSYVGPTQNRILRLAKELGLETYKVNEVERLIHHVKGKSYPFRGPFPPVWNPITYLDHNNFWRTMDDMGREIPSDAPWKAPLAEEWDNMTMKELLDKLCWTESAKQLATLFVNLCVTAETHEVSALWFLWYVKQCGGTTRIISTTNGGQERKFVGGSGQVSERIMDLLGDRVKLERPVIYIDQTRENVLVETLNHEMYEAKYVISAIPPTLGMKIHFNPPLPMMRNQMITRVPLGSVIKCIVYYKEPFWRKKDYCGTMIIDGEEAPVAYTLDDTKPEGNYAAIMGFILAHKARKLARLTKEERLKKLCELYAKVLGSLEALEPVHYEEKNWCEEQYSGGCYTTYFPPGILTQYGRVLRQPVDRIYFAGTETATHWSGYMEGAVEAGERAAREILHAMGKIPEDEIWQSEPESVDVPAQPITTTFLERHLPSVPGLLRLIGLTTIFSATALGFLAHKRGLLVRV
Nature of the data set: hMAO inhibition assay (Amplex Red fluorescence), hMAO-B, benzylamine substrate. It counts as biochemical. As to conditions: for Selectivity Index (SI): SI = IC50 (hMAO-A)/IC50 (hMAO-B); for IC50: recombinant hMAO-B, read-out: hMAO-B IC50; for inhibition at 1 µM: tested concentration 1 µM; for fold higher inhibitory potency than 4: from IC50, versus compound 4. The protocol:
The hMAO inhibition assay was performed as previously described. […] The test compounds were dissolved in DMSO as stock solutions (10 mM) and diluted with sodium phosphate buffer (50 mM, pH 7.4) to the corresponding concentrations. […] The specific fluorescence emission was calculated after subtraction of the background activity. The background activity was determined from wells containing all components except the hMAO isoforms, which were replaced by a sodium phosphate buffer solution. The percentage inhibition was calculated by the following expression: (1 – IFi/IFc) × 100, in which IFi and IFc are the fluorescence intensities obtained for hMAO in the presence and absence of inhibitors after subtracting the respective background.

The next data set concerns the target T2, hMAO-A (Homo sapiens, UniProt P21397).
T2 sequence (P21397 1-527): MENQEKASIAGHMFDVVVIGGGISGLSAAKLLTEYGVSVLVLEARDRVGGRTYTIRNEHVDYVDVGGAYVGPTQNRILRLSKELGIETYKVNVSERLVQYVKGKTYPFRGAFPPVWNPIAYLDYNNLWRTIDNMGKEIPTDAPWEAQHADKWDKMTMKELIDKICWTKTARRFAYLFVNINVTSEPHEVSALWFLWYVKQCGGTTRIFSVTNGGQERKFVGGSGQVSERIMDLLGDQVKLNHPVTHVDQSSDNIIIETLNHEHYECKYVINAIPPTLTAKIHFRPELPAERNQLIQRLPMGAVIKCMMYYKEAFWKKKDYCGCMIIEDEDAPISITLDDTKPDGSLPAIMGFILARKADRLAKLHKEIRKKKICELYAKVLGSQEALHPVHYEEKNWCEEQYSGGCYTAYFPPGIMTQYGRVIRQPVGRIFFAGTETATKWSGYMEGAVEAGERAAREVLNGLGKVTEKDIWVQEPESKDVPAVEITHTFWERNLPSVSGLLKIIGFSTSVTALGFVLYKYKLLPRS
Nature of the data set: hMAO inhibition assay (Amplex Red fluorescence), hMAO-A, p-tyramine substrate. It counts as biochemical. The note with it: for IC50: recombinant hMAO-A. As for the experimental part:
The hMAO inhibition assay was performed as previously described. Adequate amounts of recombinant hMAO-A/B were acquired and adjusted to 12.5 µg/mL or 75 µg/mL for hMAO-A or hMAO-B, respectively, with sodium phosphate buffer (50 mM, pH 7.4). The test compounds were dissolved in DMSO as stock solutions (10 mM) and diluted with sodium phosphate buffer (50 mM, pH 7.4) to the corresponding concentrations. Then the test compounds (20 µL) and hMAO (80 µL) were incubated for 15 min at 37 °C in a flat, black-bottomed 96-well microtest plate in the dark. The reaction was initiated by adding Amplex Red reagent (200 µM, final concentration), horseradish peroxidase (2 U/mL, final concentration), and 2 mM p-tyramine for hMAO-A or 2 mM benzylamine (final concetration) for hMAO-B and incubated at 37 °C for 20 min. Activity was quantified in a multi detection microplate fluorescence reader (SpectraMax M5, Molecular Devices, USA) based on the fluorescence generated (excitation, 545 nm; emission, 590 nm). The specific fluorescence emission was calculated after subtraction of the background activity. The background activity was determined from wells containing all components except the hMAO isoforms, which were replaced by a sodium phosphate buffer solution. The percentage inhibition was calculated by the following expression: (1 – IFi/IFc) × 100, in which IFi and IFc are the fluorescence intensities obtained for hMAO in the presence and absence of inhibitors after subtracting the respective background. […]

For `O=C(/C=C/c1ccc2c(c1)OCCO2)c1ccc(F)cc1` [Compound 20, (E)-3-(2,3-dihydrobenzo[b][1,4]dioxin-6-yl)-1-(4-fluorophenyl)prop-2-en-1-one], the melting point fell in the range of 135.5 to 136.5 °C. Besides, on hMAO-B, the “Selectivity Index (SI)” value is on record as >588, the concentration for half-maximal inhibition (IC50) is 0.068 ± 0.007 µM and the inhibition at 1 µM is 87.5%. Also, on hMAO-A, the half-inhibitory concentration (IC50) was > 40 µM.
In turn, `O=C(/C=C/c1ccc2c(c1)OCCO2)c1ccccc1Br` [Compound 14, (E)-1-(2-bromophenyl)-3-(2,3-dihydrobenzo[b][1,4]dioxin-6-yl)prop-2-en-1-one] had a melting point of 70.3 to 72.2 °C. Besides, on hMAO-B, the “Selectivity Index (SI)” value is >494, the “fold higher inhibitory potency than 4” value is given as 1.8–4.1 fold, the IC50 came out at 0.081 ± 0.004 µM and at 1 µM the inhibition was 92.6%. Further, the IC50 on hMAO-A was > 40 µM.
Take `COc1ccc(C(=O)/C=C/c2ccc3c(c2)OCCO3)cc1OC` [Compound 11, (E)-3–(2,3-dihydrobenzo[b][1,4]dioxin-6-yl)-1–(3,4-dimethoxyphenyl)prop-2-en-1-one]: the melting point is 110 to 111.1 °C. Besides, at hMAO-B, the inhibition at 1 µM is 22.4%. Also, the half-maximal inhibitory concentration (IC50) at hMAO-A is > 40 µM.
Regarding `O=C(/C=C/c1ccc2c(c1)OCCO2)c1ccc(Br)cc1` [Compound 19, (E)-1–(4-bromophenyl)-3–(2,3-dihydrobenzo[b][1,4]dioxin-6-yl)prop-2-en-1-one], the melting point is 136.7 to 138.2 °C. Moreover, the inhibition at 1 µM against hMAO-B was 68.1%. Besides, the IC50 at hMAO-A is > 40 µM.
`O=C(/C=C/c1ccc2c(c1)OCCO2)c1ccc(C(F)(F)F)cc1` [Compound 21, (E)-3-(2,3-dihydrobenzo[b][1,4]dioxin-6-yl)-1-(4-(trifluoromethyl)phenyl)prop-2-en-1-one] showed a melting point of 139 to 140.2 °C. On hMAO-B, the “Selectivity Index (SI)” value is recorded as >174, the half-maximal inhibitory concentration (IC50) was 0.23 ± 0.0005 µM and 1 µM produced 76.8% inhibition. For the same molecule, at hMAO-A, the IC50 is > 40 µM.
As to `O=C(/C=C/c1ccc2c(c1)OCCO2)c1ccccc1O` [Compound 5, (E)-3-(2,3-dihydrobenzo[b][1,4]dioxin-6-yl)-1-(2-hydroxyphenyl)prop-2-en-1-one], the melting point fell in the range of 120.8 to 122.3 °C. At hMAO-B, the “Selectivity Index (SI)” value is >133, the IC50 came to 0.3 ± 0.02 µM and the inhibition at 1 µM amounted to 75%. Also, the concentration for half-maximal inhibition (IC50) at hMAO-A was > 40 µM.
The like results for `O=C(/C=C/c1ccc2c(c1)OCCO2)c1cc(Cl)ccc1O` [Compound 25, (E)-1-(5-chloro-2-hydroxyphenyl)-3-(2,3-dihydrobenzo[b][1,4]dioxin-6-yl)prop-2-en-1-one] were, in that order, 136.2 to 137.3 °C, >125, 0.32 ± 0.05 µM, 78.4% and > 40 µM.
`O=C(/C=C/c1ccc2c(c1)OCO2)c1ccc(Cl)cc1` [Compound 28, (E)-3-(benzo[d][1,3]dioxol-5-yl)-1-(4-chlorophenyl)prop-2-en-1-one] yielded an inhibition at 1 µM on hMAO-B of 57.5%. Moreover, at hMAO-A, the half-maximal inhibitory concentration (IC50) was > 40 µM.
The like results for `O=C(/C=C/c1ccc2c(c1)OCO2)c1ccccc1` [Compound 3, (E)-3-(benzo[d][1,3]dioxol-5-yl)-1-phenylprop-2-en-1-one] were, in that order, 50.8% and > 40 µM.
Consider `COc1cccc(C(=O)/C=C/c2ccc3c(c2)OCCO3)c1` [Compound 6, (E)-3-(2,3-dihydrobenzo[b][1,4]dioxin-6-yl)-1–(3-methoxyphenyl)prop-2-en-1-one], for which the melting point is 94.4 to 95.6 °C. Moreover, on hMAO-B, the “Selectivity Index (SI)” value is on record as >118, the IC50 came out at 0.34 ± 0.01 µM and testing at 1 µM gave an inhibition of 78%. The half-inhibitory concentration (IC50) on hMAO-A is > 40 µM.
For `O=C(C=Cc1ccccc1)c1ccccc1` [Compound 1, 1,3-diphenyl-2-propen-1-one], the IC50 at hMAO-B was 13.04 ± 0.06 µM; on hMAO-A, > 40 µM.
As for `O=C(/C=C/c1ccc2c(c1)OCCO2)c1cccc(F)c1` [Compound 15, (E)-3-(2,3-dihydrobenzo[b][1,4]dioxin-6-yl)-1-(3-fluorophenyl)prop-2-en-1-one], on hMAO-B, the “Selectivity Index (SI)” value is >308, the “fold higher inhibitory potency than 4” value is on record as 1.7–4 fold, the half-maximal inhibitory concentration (IC50) was determined as 0.13 ± 0.007 µM and 1 µM produced 89.2% inhibition. Further, the IC50 on hMAO-A is > 40 µM.
Consider `O=C(/C=C/c1ccc2c(c1)OCCO2)c1ccc(Cl)c(Cl)c1` [Compound 23, (E)-1-(3,4-dichlorophenyl)-3–(2,3-dihydrobenzo[b][1,4]dioxin-6-yl)prop-2-en-1-one], for which the melting point lay within 156.6 to 157.9 °C. Besides, at hMAO-B, the “Selectivity Index (SI)” value was >235, the IC50 was determined as 0.17 ± 0.02 µM and the inhibition at 1 µM stood at 88.8%. For the same molecule, the IC50 at hMAO-A is > 40 µM.
As to `O=C(/C=C/c1ccc2c(c1)OCCO2)c1ccc(Cl)cc1O` [Compound 26, (E)-1-(4-chloro-2-hydroxyphenyl)-3-(2,3-dihydrobenzo[b][1,4]dioxin-6-yl)prop-2-en-1-one], the melting point was in the range of 155.7 to 156.1 °C. At hMAO-B, the inhibition at 1 µM stood at 62.3%. On hMAO-A, the IC50 is > 40 µM.
Molecule `COc1ccc(C(=O)/C=C/c2ccc3c(c2)OCCO3)cc1` [Compound 8, (E)-3–(2,3-dihydrobenzo[b][1,4]dioxin-6-yl)-1-(4-methoxyphenyl)prop-2-en-1-one] displayed a melting point of 93.8 to 94.9 °C. In addition, testing at 1 µM against hMAO-B gave an inhibition of 51.7%. Further, the IC50 on hMAO-A is > 40 µM.
On to `O=C(/C=C/c1ccc2c(c1)OCCO2)c1ccc(O)cc1` [Compound 7, (E)-3–(2,3-dihydrobenzo[b][1,4]dioxin-6-yl)-1-(4-hydroxyphenyl)prop-2-en-1-one], for which at 1 µM the inhibition against hMAO-B was 26%. The IC50 at hMAO-A is > 40 µM.
At hMAO-B, `O=C(/C=C/c1ccc2ccccc2c1)c1ccccc1` [Compound 2, (E)-3-(naphthalen-2-yl)-1-phenylprop-2-en-1-one] came in with an inhibition at 1 µM of 18.1%. Besides, on hMAO-A, the IC50 is > 40 µM.
`O=C(/C=C/c1ccc2c(c1)OCCO2)c1ccc(Cl)cc1` [Compound 18, (E)-1–(4-chlorophenyl)-3–(2,3-dihydrobenzo[b][1,4]dioxin-6-yl)prop-2-en-1-one] came in with an inhibition at 1 µM at hMAO-B of 69.9%. For the same molecule, the half-maximal inhibitory concentration (IC50) at hMAO-A was > 40 µM.
As to `O=C(/C=C/c1ccc2c(c1)OCCO2)c1ccccc1` [Compound 4, (E)-3-(2,3-dihydrobenzo[b][1,4]dioxin-6-yl)-1-phenylprop-2-en-1-one], at hMAO-B, the “Selectivity Index (SI)” value was >186 and the inhibition at 1 µM came to 84.9%. In addition, the “fold higher hMAO-B inhibition than 1” value on hMAO-B (from IC50, versus compound 1) is listed as 55 fold. Further, the IC50 at hMAO-A is > 40 µM.
Take `C#CCN(C)CCCOc1ccc(Cl)cc1Cl` [clorgyline, reference compound]: the inhibition at 0.1 µM on hMAO-A (read-out: hMAO-A % inhibition) was determined as 86.6%.
